Like-named read-outs stand apart in the source and are kept apart here.
Experiments:
NRF2 [1] = conditions: AREc32 cells, 24 h; Table S1; ref [2] of the supplement; cited from earlier work
[2] = test system: SH-SY5Y neuroblastoma cells; assay: Neuroprotection against okadaic acid hyperphosphorylation in SH-SY5Y cells (MTT); type: cell-based, human; conditions: compound 1 μM 24 h, then compound + OA 24 h; for % Survival: basal = 100, OA alone 54.7; for % Protection: n.p = compound does not protect cells
Protocol: (§1) Human neuroblastoma SH-SY5Y cells were plated in 96-well clear multi-well plates (6 × 10^4 cells/well). The potential neuroprotective activity of compounds against OS was evaluated using the rotenone (30 μM) (SigmaAldrich, R8875) and oligomycin A (10 μM) (SigmaAldrich, 75351) (R/O) toxic mixture. Neuroprotection activity against Tau hyperphosphorylation was evaluated by using the okadaic acid (20 nM) model. Cells were pre-incubated with each compound (1 µM) for 24 h, and then treatments were removed and cells were incubated with compounds (1 µM) in the presence the corresponding toxic for additional 24 h. At the end of the experiments, viability was determined by the MTT method. Data were normalized from cell death induced by the toxic stimuli (considered as 100% cell death). Then, the protection percentages were calculated by subtracting from the death induced by toxic stimuli, the death in the presence of the compound.
(§2) The tetrazolium ring of MTT can be cleaved by active dehydrogenases to produce a formazan precipitate. At the end of the experiments, MTT (SigmaAldrich, M2003) stock solution was added to each well to achieve a final concentration of 0.5 mg/mL. Cells were incubated for 2 h. Thereafter, culture media was removed, and DMSO was added to each well to dissolve the formazan precipitate. Finally, absorbance was measured in a microplate reader (SPECTROstar nano, BMG Labtech) at 570 nm. Absorbance obtained in basal conditions was considered as 100% cell viability.
Considering these precedents, we envisaged the evaluation of our compounds in a hyperphosphorylation toxicity model induced by okadaic acid (OA), a protein phosphatase 2A inhibitor [58, 59]. This inhibition causes an imbalance between kinase and phosphatase action, leading to hyperphosphorylation of proteins, in particular, Tau. Thus, treatment of SH-SY5Y neuroblastoma cells with OA is a well-stablished model of Tau hyperphosphorylation. Similarly, to the method used for the OS model, we selected a pre-incubation/co-incubation protocol to evaluate the potential neuroprotection capacity related to the NRF2 induction/antioxidant properties of the compounds. Cells were treated with compounds (±)-6, R-6, S-6 or 7a–d (1 µM) during 24 h; thereafter, cells were co-treated with compounds (1 µM) and OA (20 nM) for a further 24 h. Melatonin was also included as a positive control. Finally, cellular viability was evaluated by the MTT method. […] Finally, the (R,S)-7c diastereomer was not able to afford any protection, a result that might be in line with its low NRF2 induction capacity.

[3] = test system: SH-SY5Y neuroblastoma cells; assay: Neuroprotection against rotenone/oligomycin A oxidative stress in SH-SY5Y cells (MTT); type: cell-based, human; conditions: compound 1 μM 24 h, then compound + R/O (30/10 μM) 24 h; for % Survival: basal = 100, R/O alone 53.4
Protocol: as §1, §2
Thus, we selected a pre-incubation protocol to evaluate their potential neuroprotective capacity based on the NRF2-induction activity and direct antioxidant effect. Compound pre-incubation would induce the expression of antioxidant enzymes regulated by the phase II antioxidant response, thus promoting cells’ survival. The co-incubation period would also evaluate their capacity to trap free radicals produced by intoxicated mitochondria. SH-SY5Y neuroblastoma cells were treated with compounds (1 µM) during 24 h, and then cells were co-incubated with the corresponding compound at the same concentration and the R/O combination (30/10 µM) for additional 24 h. Melatonin, a well-known antioxidant natural neurohormone, was included as a positive control (1 µM). Previously reported racemic derivatives (rac-3a and (rac,R)-3b) and their precursors ((±)-6, R-6 and S-6) were included for comparative purposes at the same concentration.

BV2 microglial cells = assay: Nitrite production reduction in LPS-stimulated BV2 microglial cells (Griess); type: cell-based, mouse; conditions: Mus musculus, BV-2; 24 h pretreatment 0.3, 3, 10, 30 μM, then compound + LPS 100 ng/mL 18 h, Griess
Protocol: BV2 microglial cells were seeded at 2 × 10^4 cells/well and treated with compounds at increasing concentrations during 24 h in complete culture media. Then, treatments were removed, and BV2 cells were co-incubated with compounds and LPS (100 ng/mL) (O127:B8, SigmaAldrich, L3129) for additional 18 h in culture media supplemented with 1% FBS. Each plate included non-treated cells as basal nitrite production. Thereafter, nitrite production was determined by using the modified Griess assay. In brief, samples (150 μL) were mixed with DAPSONE (75 μL) (SigmaAldrich, A74807) and NEDA (75 μL) (SigmaAldrich, 33461), and the mixture was incubated at room temperature for 5 min. Light absorption was measured at 550 nm in a microplate reader (SPECTROstar nano, BMG Labtech). Basal nitrite production was referred to as 100% of nitrite production, and all data were normalized to the basal condition. Concentration needed to reduce nitrite production to 50% was calculated from graphical representation of percentage of nitrite production vs. compound concentration, and data were fitted by non-linear regression and interpolated to 50%.
Chronic neuroinflammation is considered a key pathological event in the early stages of AD development. Among immune cells present at CNS, microglia is related to host defense and tissue repair. Nonetheless, chronic neuroinflammation induced by an adverse environment of protein aggregates and exacerbated OS induces a neurotoxic activity of microglia that, finally, leads to neuronal death. […] To this end, we selected the BV2 microglial cell model stimulated by lipopolysaccharide (LPS), a TLR4 agonist that activates the pro-inflammatory response. CGP37157, R- and S-LA; analogue compounds rac-3a and (rac,R)-3b; and precursor derivatives 6 were included with comparative and reference purposes. Microglial BV2 cells were treated with increasing concentrations of the corresponding compound (0.3, 3, 10 and 30 µM) for 24 h following a pre-incubation protocol. Thereafter, treatments were exchanged by a combination of the corresponding compound at desired concentration and LPS (100 ng/mL) during 18 h. At the end of this period, nitrite production was evaluated by the Griess method as an indirect measurement of iNOS enzyme expression and BV2 activation.

NRF2 [4] = assay: NRF2 induction, luciferase expression in AREc32 cell line; type: cell-based; conditions: AREc32 cells, 0.3, 3, 10 and 30 μM (LA: 0.1–0.6 mM), 24 h; mean ± SEM
Protocol: AREc32 cell line was kindly shared by Professor Roland Wolf (University of Dundee, UK). AREc32 cells were maintained in DMEM/glutamax/high glucose (Gibco, 61965-06, Madrid, Spain), supplemented with 1% penicillin–streptomycin (10,000 units) (SigmaAldrich, P4333, Madrid, Spain), geneticin (0.8 mg/mL) (Gibco, 11811-031) and 10% FBS (Gibco, 10270106), at 37 °C in a 5% CO2 air atmosphere. Cells were used from passage 4 to 18, and mycoplasma contamination was tested every 4 weeks. AREc32 cells were seeded in 96-well white plates (2 × 10^4 cells/well) for 24 h. Thereafter, cells were treated with each compound (0.3, 3, 10 and 30 µM) in duplicate for 24 h. Non-treated cells were included as basal luciferase expression and tert-butylhydroquinone (TBHQ, 10 μM) as positive control in each plate. Luciferase expression was evaluated by using the Luciferase Assay System (Promega, E1483, Madrid, Spain) by luminescence in an Orion II microplate luminometer (Berthold, Germany). Luciferase activity increase was normalized to basal conditions considered as 1. CD values (concentration required to double the luciferase activity) were calculated from dose–response curves of luciferase fold induction vs. compound concentration, fitted by non-linear regression and data interpolated to value 2.
To evaluate the influence of both stereogenic centers in the NRF2 induction capacity of aza-CGP37157-LA hybrids, we used the AREc32 cell line model by analyzing luciferase expression upon treatment with NRF2 inducers. AREc32 cells were exposed to increasing concentrations of tested compounds 7a–d (0.3, […], 10 and 30 μM) during 24 h; thereafter, luciferase expression was evaluated by luminescent assay to calculate the corresponding CD value (concentration to double luciferase expression). […] TBHQ was included as a positive control, and CGP37157, S- and R-LA, rac-3a and (rac,R)-3b and precursors derivatives (R-6 and S-6) were included for comparative purposes. […] Once R-LA is reduced, it might activate the phase II antioxidant response by acting as pro-oxidant over key Cys residues at KEAP1 to generate the corresponding lipoyl-cystinyl disulphide.

[5] = DPPH reduction assay, antioxidant capacity; conditions: for IC50: mean ± SEM of three experiments; for DPPH Scavenging at 100 µM, %: compound 100 µM; for DPPH Scavenging at 100 µM, % / DPPH Scavenging at 1mM, %: DPPH 100 µM, 30 min, mean ± SEM; for DPPH Scavenging at 1mM, %: compound 1 mM
Protocol: Antioxidant capacity was evaluated by using described procedure slightly modified. Compounds (0.1 and 1 mM, final concentration) were diluted in assay media (EtOH/H2O, 70:30) and mixed with 100 μL of DPPH (SigmaAldrich, D9132, Madrid, Spain) solution (100 μM final concentration) in a clear 96-multiwell plate. Final solution was kept in dark for 30 min, and absorbance of DPPH was measured in a SpectroStar Nano plate-reader (BMG Labtech, Ortenberg, Germany) in duplicate at […]. All experiments included a blank (assay media), control (DPPH 100 μM) and a positive control (ascorbic acid, 100 μM). Data were evaluated as % absorbance (Abs) reduction of control after subtracting blank absorbance. % DPPH reduction = [100 − ((Abssample − Absblank) × 100]/Abscontrol
Initially, we evaluated the free-radical-scavenging capacity of derivatives 7a–d in the DPPH assay, based on the capacity of the tested derivatives to react with the 2,2-diphenyl-1-picrylhydracil radical to generate a non-radical derivate. Hybrid derivatives 7a–d were evaluated at two different concentrations (0.1 and 1 mM), considering the activities of previously reported racemic derivatives. […] Ascorbic acid was used as a positive control, and CGP37157, rac-3a and (rac,R)-3b were included as references. […] Those results are similar to those obtained for racemic mixtures 3a and 3b and a mixture of (S,R)-7b and (R,R)-7d obtained from rac-3 and R-lipoic acid.

[6] = Cytotoxicity in SH-SY5Y cell line (MTT); type: cell-based; conditions: human
Protocol: SH-SY5Y human neuroblastoma cells were seeded in 96-well clear multi-well plates (6 × 10^4 cells/well). Cells were treated with increasing concentrations of compounds (10, 30 and 100 μM) for 24 h. Thereafter, viability was assessed by the MTT method. Cytotoxic concentration to observe 50% mortality (CC50) values for compounds were interpolated from dose–response curves represented as percentage of cell death vs. concentration of compound, fitted by non-linear regression and data interpolated to value 50.
as §2
In order to evaluate the potential pharmacological profile of new compounds, we first tested the potential neurotoxicity in the neuroblastoma SHSY5Y cell line. Toxicity was evaluated at increasing concentrations (10, 30 and 100 μM), and toxicity was measured as MTT reduction capability. CC50 values were calculated by non-linear regression of curves % survival vs. concentration (Supplementary Materials Figure S2). CGP37157 and previously studied racemic derivatives rac-3a and (rac,R)-3b were included as reference compounds. As previously described, LA is a non-neurotoxic compound at the concentrations texted.

Row | SMILES | CD (concentration required to double the specific luciferase activity) (NRF2 [1]) [µM] | % Survival [2] [%] | % Protection [2] [%] | % Survival [3] [%] | IC50 (BV2 microglial cells) [µM] | CD (concentration required to double the specific luciferase activity) (NRF2 [4]) [µM] | IC50 [5] [µM] | CC50 at 24 h [6] [µM] | % Protection [3] [%] | DPPH Scavenging at 100 µM, % [5] [%] | DPPH Scavenging at 1mM, % [5] [%]
1 | O=C1CN(CCO)C(c2ccccc2Cl)c2cc(Cl)ccc2N1 (racemic) [(±)-6, (rac)-7-Chloro-5-(2-chlorophenyl)-4-(2-hydroxyethyl)-4,5-dihydro-1H-benzo[e][1,4]diazepin-2(3H)-one, reference compound] | > 30 | 69.1 ± 6.4 | 33.4 | 74.4 ± 4.1 | – | – | – | – | – | – | –
2 | O=C(O)CCCC[C@H]1CCSS1 [(S)-Lipoic acid, reference compound] | – | – | – | – | > 30 | > 600 | – | – | – | – | –
3 | O=C1O[C@H]([C@@H](O)CO)C(O)=C1O [Ascorbic acid, reference compound] | – | – | – | – | – | – | 16.2 ± 0.7 | – | – | – | –
4 | O=C1CN(CCO)[C@@H](c2ccccc2Cl)c2cc(Cl)ccc2N1 [Compound R-6, (5R)-7-Chloro-5-(2-chlorophenyl)-4-(2-hydroxyethyl)-4,5-dihydro-1H-benzo[e][1,4]diazepin-2(3H)-one] | – | 59.3 ± 10.6 | 14.2 | 75.1 ± 2.9 | – | 11.8 ± 0.5 | – | > 100 | 45.7 | 10.30 ± 1.10 | 26.7 ± 1.3
5 | O=C1CN(CCO)[C@H](c2ccccc2Cl)c2cc(Cl)ccc2N1 [Compound S-6, (5S)-7-Chloro-5-(2-chlorophenyl)-4-(2-hydroxyethyl)-4,5-dihydro-1H-benzo[e][1,4]diazepin-2(3H)-one] | – | 71.5 ± 10.0 | 41.9 | 74.7 ± 2.5 | – | 14.4 ± 0.2 | – | > 100 | 51.5 | 8.47 ± 2.42 | 25.3 ± 1.5
6 | COc1ccc2[nH]cc(CCNC(C)=O)c2c1 [Mel, Melatonin, reference compound] | – | 70.3 ± 4.3 | 31.1 | 68.0 ± 1.5 | – | – | – | – | 46.1 | – | –
7 | Cc1c(C)c2c(c(C)c1O)CCC(C)(C(=O)O)O2 (stereo not drawn) [Trolox, reference compound] | – | – | – | – | – | – | 11.4 ± 1 | – | – | 93.4 ± 0.5 | 92.2 ± 0.5
